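Step 1: Grow cells in 96-well plates. Step 2: Expose to compound for 48 hours at 5 concentrations. Step 3: Interpolate endpoints linearly; if unreached, use highest concentration. The concentration for full growth arrest is given as TGI.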 Where a SMILES comes first, the peptide text is derived from it. [ ]: non-standard residue; d: D form. The star is where a group is joined. Phe(4-NO2) = N[CH](Cc1ccc([N+](=O)[O-])cc1)C(=O)O; Boc = CC(C)(C)OC(=O)*
Assays:
Assay in all cases: growth of human tumour cells (NCI), 48 h
[1] = system: LOX IMVI melanoma
[2] = system: SK-MEL-2 melanoma
[3] = system: HCC-2998 colon
[4] = system: M14 melanoma
[5] = system: NCI-H23 lung
[6] = system: UACC-257 melanoma
[7] = system: A549 NSCLC
[8] = system: EKVX NSCLC
[9] = system: COLO 205 colon
[10] = system: OVCAR-5 ovarian
[11] = system: HOP-62 NSCLC
[12] = system: NCI-H460 lung
[13] = system: UACC-62 melanoma
[14] = system: 786-0 renal
[15] = system: UO-31 renal
[16] = system: DU-145 prostate
[17] = system: MALME-3M melanoma
[18] = system: SW-620 colon
[19] = system: A498 renal
[20] = system: TK-10 renal
[21] = system: NCI-H522 lung
[22] = system: SNB-19 CNS
[23] = system: NCI/ADR-RES ovarian
[24] = system: HCT-116 colon
[25] = system: NCI-H226 lung
[26] = system: SF-295 CNS
[27] = system: OVCAR-4 ovarian
[28] = system: RXF 393 renal
[29] = system: CCRF-CEM leukemia
[30] = system: BT-549 breast
[31] = system: SK-MEL-28 melanoma
[32] = system: MDA-N
[33] = system: ACHN renal
[34] = system: MDA-MB-435
[35] = system: T-47D breast
[36] = system: SR leukemia
[37] = system: RPMI-8226 leukemia
[38] = system: HT29 colon
[39] = system: HCT-15 colon
[40] = system: SF-539 CNS
[41] = system: SF-268 CNS
[42] = system: K-562 leukemia
[43] = system: MOLT-4 leukemia
[44] = system: OVCAR-8 ovarian
[45] = system: HS 578T breast
[46] = system: MCF7 breast
[47] = system: IGROV1 ovarian
[48] = system: HOP-92 NSCLC
[49] = system: MDA-MB-231 breast
[50] = system: PC-3 prostate
[51] = system: CAKI-1 renal
[52] = system: KM12 colon
[53] = system: SNB-75 CNS
[54] = system: SK-MEL-5 melanoma
[55] = system: OVCAR-3 ovarian
[56] = system: SN12C renal
[57] = system: U251 CNS
[58] = system: HL-60(TB) leukemia
[59] = system: SK-OV-3 ovarian

Measured: TGI

N#C/C(N)=C(\C#N)NC(=O)C(=O)N/C(C#N)=C(\N)C#N
not listed: [58] | [59]
> 100 µM: all other assays above

CNC(=O)CCC(NC(=O)OC(C)(C)C)C(=O)NC(Cc1ccc([N+](=O)[O-])cc1)C(=O)NCC(=O)NC (stereo not drawn) (Boc-Glu(NHMe)-[Phe(4-NO2)]-Gly-NHMe; configuration not given here)
not listed: [2] | [6] | [29]
> 100 µM: all other assays above
